Experimental data as given in patent US20230021448A1, “COMPOUNDS AND COMPOSITIONS FOR TREATING CONDITIONS ASSOCIATED WITH STING ACTIVITY” (IFM Due, Inc., priority 2019, published 2023).
pEC50: −log10 of the molar value.

Biological target: T1, STING (Homo sapiens, UniProt Q86WV6, G230A/H232R/R293Q/R71H)
T1 construct: host or cells: THP1-Dual KO-IFNAR2 cells
Test: STING reporter assay: luciferase reporter activity in THP1-Dual KO-IFNAR2 cells stimulated with 2'3'cGAMP
Format: cell-based
Settings: 2′3′cGAMP 15 μM final, 24h, read-out: hSTING: EC50
Method in brief: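 THP1-Dual KO-IFNAR2 cells (2×10E6 cells/mL) incubated with compounds at 0.0017-100 μM final plus Lipofectamine-transfected 2′3′cGAMP (15 μM final), 24 h at 37 °C, 5% CO2. Luciferase in supernatant read by QUANTI-Luc luminescence; EC50 derived.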

T1 sequence (Q86WV6 whole entry R71H/G230A/H232R/R293Q): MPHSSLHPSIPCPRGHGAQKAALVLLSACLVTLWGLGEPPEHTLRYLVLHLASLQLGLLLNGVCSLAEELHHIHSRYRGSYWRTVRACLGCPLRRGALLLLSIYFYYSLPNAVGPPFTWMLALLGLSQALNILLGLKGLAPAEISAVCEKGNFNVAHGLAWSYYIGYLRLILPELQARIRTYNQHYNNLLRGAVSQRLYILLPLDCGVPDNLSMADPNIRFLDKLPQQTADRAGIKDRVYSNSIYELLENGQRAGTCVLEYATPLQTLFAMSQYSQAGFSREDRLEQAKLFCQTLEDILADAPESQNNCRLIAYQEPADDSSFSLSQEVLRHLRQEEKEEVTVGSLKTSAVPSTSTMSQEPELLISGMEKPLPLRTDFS

Structure (SMILES)	pEC50
O=C(Nc1c[nH]c2cc(F)ccc12)C(=O)NC1CCC(Oc2ccc(C(F)(F)F)cn2)CC1 (centres unmarked) [Compound 225, N-(6-fluoro-1H-indol-3-yl)-N′-(4-((5-(trifluoromethyl)pyridin-2-yl)oxy)cyclohexyl)oxalamide]	6.70 to 7.40
O=C(Nc1c[nH]c2cc(F)c(F)cc12)C(=O)NC1CC(Oc2ccc(C(F)(F)F)cn2)C1 (centres unmarked) [Compound 226]	6.70 to 7.40
O=C(Nc1c[nH]c2cc(F)c(F)cc12)C(=O)N[C@H]1CC[C@@H](Oc2ccc(C(F)(F)F)cn2)CC1 [Compound 229]	5.30 to 6.00
O=C(Nc1c[nH]c2cc(F)c(F)cc12)C(=O)N[C@H]1CC[C@H](Oc2ccc(C(F)(F)F)cn2)CC1 [Compound 230, N-(5,6-difluoro-1H-indol-3-yl)-N′-[trans-4-[[5-(trifluoromethyl)pyridin-2-yl]oxy]cyclohexyl]ethanediamide]	6.70 to 7.40
N#Cc1cc(NC(=O)C(=O)Nc2c[nH]c3cc(F)c(F)cc23)cnc1N1CCCC1 [Compound 231]	6.00 to 6.70
Cc1cc(NC(=O)C(=O)Nc2c[nH]c3cc(F)c(-c4cnn(C)c4)cc23)cnc1N1CCC(F)(F)CC1 [Compound 232]	5.30 to 6.00
O=C(Nc1c[nH]c2cc(F)c(F)cc12)C(=O)N[C@H]1CCCC(Oc2ccc(C(F)(F)F)cc2)C1 (some centres unmarked) [Compound 233]	6.00 to 6.70
O=C(Nc1c[nH]c2cc(F)c(F)cc12)C(=O)N[C@@H]1CCCC(Oc2ccc(C(F)(F)F)cc2)C1 (some centres unmarked) [Compound 234]	6.00 to 6.70
O=C(Nc1cnc(-n2nccn2)c(C(F)(F)F)c1)C(=O)Nc1c[nH]c2cc(F)c(F)cc12 [Compound 238, N1-(6-(2H-1,2,3-triazol-2-yl)-5-(trifluoromethyl)pyridin-3-yl)-N2-(5,6-difluoro-1H-indol-3-yl)oxalamide]	5.30 to 6.00
O=C(Nc1c[nH]c2cc(F)c(F)cc12)C(=O)N1CCN(c2ccc(CC(F)(F)F)cn2)CC1 [Compound 241]	6.00 to 6.70
Cc1ccc(CNC(=O)C(=O)Nc2c[nH]c3cc(F)c(F)c(Br)c23)cc1C(F)(F)F [Compound 242]	4.00 to 5.30
O=C(Nc1c[nH]c2cc(F)c(F)cc12)C(=O)N[C@H]1CC[C@@H](Oc2ccc(C(F)(F)F)cc2)CC1 [Compound 249]	5.30 to 6.00
O=C(Nc1c[nH]c2cc(F)c(F)cc12)C(=O)N[C@H]1CC[C@H](Oc2ccc(C(F)(F)F)cc2)CC1 [Compound 250, N-(5,6-difluoro-1H-indol-3-yl)-N′-(trans-4-(4-(trifluoromethyl)phenoxy)cyclohexyl)oxalamide]	6.70 to 7.40
O=C(Nc1c[nH]c2cc(F)c(F)cc12)C(=O)N1CCC(Cc2ccc(C(F)(F)F)cc2)CC1 [Compound 251]	5.30 to 6.00
O=C(Nc1c[nH]c2cc(F)c(F)cc12)C(=O)N1CCC2(CCCCC2)CC1 [Compound 252]	5.30 to 6.00
O=C(Nc1c[nH]c2cc(F)c(F)cc12)C(=O)N1CCN(Cc2ccc(C(F)(F)F)cc2)CC1 [Compound 253]	6.00 to 6.70
Cc1ccccc1N1C2CCC1CC(NC(=O)C(=O)Nc1c[nH]c3cc(F)c(F)cc13)C2 (centres unmarked) [Compound 254]	6.00 to 6.70
O=C(Nc1c[nH]c2cc(F)c(F)cc12)C(=O)NC1CCC(Oc2ccc(C(F)(F)F)cn2)CC1 (centres unmarked) [Compound 255]	4.00 to 5.30
O=C(Nc1c[nH]c2cc(F)c(F)cc12)C(=O)NC1CCN(Cc2ccccc2)C2(CCCCC2)C1 (centres unmarked) [Compound 256]	5.30 to 6.00
O=C(NCC1COc2ccccc2O1)C(=O)Nc1c[nH]c2cc(F)c(F)cc12 (centres unmarked) [Compound 261, N-(5,6-difluoro-1H-indol-3-yl)-N′-[(2,3-dihydro-1,4-benzodioxin-2-yl)methyl] ethanediamide]	6.00 to 6.70
O=C(Nc1ccc2c(cnn2Cc2cccc(F)c2)c1)C(=O)Nc1c[nH]c2cc(F)c(F)cc12 [Compound 262, N-(5,6-difluoro-1H-indol-3-yl)-N′-{1-[(3-fluorophenyl)methyl]-1H-indazol-5-yl}ethanediamide]	6.00 to 6.70
O=C(Nc1ccc(C(F)(F)F)cc1)C(=O)Nc1c[nH]c2ccc(I)cc12 [Compound 263]	6.00 to 6.70
O=C(Nc1c[nH]c2cc(F)c(F)cc12)C(=O)N[C@H]1CCN(c2ccc(C(F)(F)F)cn2)C1 [Compound 264, (S)-N-(5,6-difluoro-1H-indol-3-yl)-N′-(1-(5-(trifluoromethyl)pyridin-2-yl)pyrrolidin-3-yl)oxalamide]	6.00 to 6.70
O=C(Nc1ccc(-n2cncn2)c(Cl)c1)C(=O)Nc1c[nH]c2cc(F)c(F)cc12 [Compound 265, N′-[3-chloro-4-(1H-1,2,4-triazol-1-yl)phenyl]-N-(5,6-difluoro-1H-indol-3-yl)ethanediamide]	5.30 to 6.00

Structure (SMILES)	pEC50
CN1CCOc2cc(NC(=O)C(=O)Nc3c[nH]c4cc(F)c(F)cc34)ccc21 [Compound 266, N-(5,6-difluoro-1H-indol-3-yl)-N′-(4-methyl-3,4-dihydro-2H-1,4-benzoxazin-7-yl)ethanediamide]	6.00 to 6.70
CC(C)(C)OC(=O)N1CC2CC(NC(=O)C(=O)Nc3c[nH]c4cc(F)c(F)cc34)CC2C1 (centres unmarked) [Compound 267, tert-butyl 5-{[(5,6-difluoro-1H-indol-3-yl)carbamoyl] formamido}-octahydrocyclopenta[c] pyrrole-2-carboxylate]	6.00 to 6.70
O=C(Nc1ccc2c(c1)CCCC2=O)C(=O)Nc1c[nH]c2cc(F)c(F)cc12 [Compound 268, N-(5,6-difluoro-1H-indol-3-yl)-N′-(5-oxo-5,6,7,8-tetrahydro-naphthalen-2-yl)ethanediamide]	6.00 to 6.70
O=C(NCCc1ccc(C(F)(F)F)cn1)C(=O)Nc1c[nH]c2cc(F)c(F)cc12 [Compound 269, N-(5,6-difluoro-1H-indol-3-yl)-N′-{2-[5-(trifluoromethyl)pyridin-2-yl]ethyl}ethanediamide]	6.00 to 6.70
N#Cc1ccc(OC2CCC(NC(=O)C(=O)Nc3c[nH]c4cc(F)c(F)cc34)CC2)cc1 (centres unmarked) [Compound 270, N′-[4-(4-cyanophenoxy)cyclohexyl]-N-(5,6-difluoro-1H-indol-3-yl)ethanediamide]	6.00 to 6.70
CC(C)(C)OC(=O)N1CCC2(CC1)CC(NC(=O)C(=O)Nc1c[nH]c3cc(F)c(F)cc13)CO2 (centres unmarked) [Compound 271, tert-butyl 3-{[(5,6-difluoro-1H-indol-3-yl)carbamoyl] formamido}-1-oxa-8-azaspiro[4.5]decane-8-carboxylate]	5.30 to 6.00
COc1ccc(Oc2ccc(NC(=O)C(=O)Nc3c[nH]c4cc(F)c(F)cc34)cc2C)cn1 [Compound 272, N-(5,6-difluoro-1H-indol-3-yl)-N′-{4-[(6-methoxypyridin-3-yl)oxy]-3-methylphenyl} ethanediamide]	6.00 to 6.70
O=C(Nc1ccc2c(c1)oc(=O)n2Cc1ccccc1)C(=O)Nc1c[nH]c2cc(F)c(F)cc12 [Compound 273, N′-(3-benzyl-2-oxo-2,3-dihydro-1,3-benzoxazol-6-yl)-N-(5,6-difluoro-1H-indol-3-yl)ethanediamide]	6.00 to 6.70
O=C(Nc1cnc2c(c1)CCC2)C(=O)Nc1c[nH]c2cc(F)c(F)cc12 [Compound 274, N′-{5H,6H,7H-cyclopenta[b]pyridin-3-yl}-N-(5,6-difluoro-1H-indol-3-yl)ethanediamide]	5.30 to 6.00
O=C(NCC(=O)c1cccc(C(F)(F)F)c1)C(=O)Nc1c[nH]c2cc(F)c(F)cc12 [Compound 275, N-(5,6-difluoro-1H-indol-3-yl)-N′-{2-oxo-2-[3-(trifluoromethyl)phenyl]ethyl} ethanediamide]	6.00 to 6.70
CC(COc1ccc(C(F)(F)F)cc1)NC(=O)C(=O)Nc1c[nH]c2cc(F)c(F)cc12 (centres unmarked) [Compound 276, N-(5,6-difluoro-1H-indol-3-yl)-N′-{1-[4-(trifluoromethyl)phenoxy]propan-2-yl}ethanediamide]	6.00 to 6.70
O=C(NCC(c1ccccc1)n1ccnc1)C(=O)Nc1c[nH]c2cc(F)c(F)cc12 (centres unmarked) [Compound 277, N-(5,6-difluoro-1H-indol-3-yl)-N′-[2-(1H-imidazol-1-yl)-2-phenylethyl] ethanediamide]	4.00 to 5.30
O=C(Nc1c[nH]c2cc(F)c(F)cc12)C(=O)NC1CCOC2(CCCC2)C1 (centres unmarked) [Compound 278]	5.30 to 6.00
O=C(Nc1c[nH]c2cc(F)c(F)cc12)C(=O)NC1CCC2(CCCC2)C1 (centres unmarked) [Compound 279]	6.00 to 6.70
O=C(Nc1c[nH]c2cc(F)c(F)cc12)C(=O)NC1CCC2(CCCCC2)C1 (centres unmarked) [Compound 280]	6.00 to 6.70
O=C(Nc1c[nH]c2cc(F)c(F)cc12)C(=O)NC1CCCC2(CCCCC2)C1 (centres unmarked) [Compound 281]	6.00 to 6.70
O=C(Nc1c[nH]c2cc(F)c(F)cc12)C(=O)NC1CCC2(CCCCO2)CC1 (centres unmarked) [Compound 282]	6.00 to 6.70
CC(CN(C)c1ccccn1)NC(=O)C(=O)Nc1c[nH]c2cc(F)c(F)cc12 (centres unmarked) [Compound 284]	5.30 to 6.00
Cc1ccc(CNC(=O)C(=O)Nc2c[nH]c3ccc(-c4cnn(CC(F)(F)F)c4)cc23)cc1OC(F)(F)F [Compound 285]	6.70 to 7.40
N#Cc1cc(NC(=O)C(=O)Nc2c[nH]c3cc(F)c(F)cc23)ccc1N1CCCC1 [Compound 286, N′-[3-cyano-4-(pyrrolidin-1-yl)phenyl]-N-(5,6-difluoro-1H-indol-3-yl)ethanediamide]	6.00 to 6.70
COc1ncc(NC(=O)C(=O)Nc2c[nH]c3cc(F)c(F)cc23)cc1C(F)(F)F [Compound 287, N-(5,6-difluoro-1H-indol-3-yl)-N′-[6-methoxy-5-(trifluoromethyl)pyridin-3-yl]ethanediamide]	5.30 to 6.00
CC(NC(=O)C(=O)Nc1c[nH]c2cc(F)c(F)cc12)c1cccc(OC(F)(F)F)c1 (centres unmarked) [Compound 288, N-(5,6-difluoro-1H-indol-3-yl)-N′-{1-[3-(trifluoromethoxy)phenyl]ethyl} ethanediamide]	6.00 to 6.70
Cc1cc(NC(=O)C(=O)Nc2c[nH]c3cc(F)c(F)cc23)ccc1OC(F)(F)F [Compound 289, N-(5,6-difluoro-1H-indol-3-yl)-N′-[3-methyl-4-(trifluoromethoxy)phenyl] ethanediamide]	6.70 to 7.40
